Measurements: PubChem BioAssay AID1918945 (Molecular Pharmacology Branch, DTP, NCI, 2023)
Several values for one entry are separate records, joined by “and”; a condition that tells them apart may be missing. Equal entries are not always repeated.

System: 883617-216-R-J1-PDC complex spheroid viability
Experiment: Anticancer human tumor 883617-216-R-J1-PDC patient-derived bladder carcinoma cell line growth inhibition
Details: for viability, T/C: stronger effect = lower value
Description: Multicellular complex tumor spheroid response to LSD1 Inhibitor Iadademstat in combination with a variety of drugs and investigational agents in selected tumor cell lines
The current study was undertaken to assess response to LSD1 inhibitors in combination with standard-of-care drugs and investigational agents in solid tumor complex spheroid models as well as in the K-562 leukemia. Complex spheroids include a stromal component modeled by human endothelial cells (HUVEC) and fibroblasts modeled by human mesenchymal stem cells (MSCs). The concentration ranges selected for each drug and investigational agent were based upon clinically achievable concentrations if the clinical Cmax of the agent was known.
Compounds. The drugs and investigational agents used in this study are listed on Table 1. All of the agents used, including staurosporine (NSC755774) and gemcitabine (NSC613327), were obtained from the Developmental Therapeutics Program, NCI. FDA-approved anticancer drugs are available from the NCI at http://dtp.nci.nih.gov/branches/dscb/oncology_drugset_explanation.html. Drugs and investigational agents were >95% pure by proton nuclear magnetic resonance (NMR) and liquid chromatography/mass spectrometry (LC/MS). Stock solutions were prepared at 400x in DMSO, stored at -70 degrees C, and diluted in fresh medium prior to their use. The final concentration of DMSO in cell culture wells never exceeded 0.25% (v/v). The FDA-approved anticancer drug set is available from the Developmental Therapeutics Program at https://dtp.cancer.gov/organization/dscb/obtaining/available_plates.htm. All drugs and investigational agents were tested over a range starting from a high concentration at or near the clinical Cmax and decreasing in half-log increments. If the clinical Cmax for an agent had not been determined, the highest concentration tested was 10 microM.
Cell Lines. The patient-derived cancer cell (PDC) lines: 292921-168-R-J2-PDC, K24384-001-R-PDC, and 521955-158-R2-J5-PDC pancreatic carcinomas, 556581-035-R-J1 ovarian carcinoma, 324938-238-R-J1-PDC, 855422-203-R-J1-PDC and 883617-216-R-J1-PDC urothelial bladder carcinomas, 743489-274-T-PDC renal cell carcinoma, 138582-R-J1 Merkel cell tumor, K60290-347-R-J1 and K57222-313-R-J1-PDC glioblastomas, 653999-131-R-J2-PDC, LG0703-F948-PDC, and 349418-098-R-PDC non-small cell lung carcinomas, 885512-296-R-J2-PDC, 171881-019-R-J1-PDC breast carcinomas and 186277-243-T-J2-PDC and 233499-124-R-J2-PDC colon carcinomas were obtained from the NCI Patient-Derived Models Repository (PDMR, https://pdmr.cancer.gov). The established cell lines NCI/ADR-RES (RRID:CVCL_14520 and OVCAR-5 (RRID:CVCL_1628) ovarian carcinomas, 786-O (RRID:CVCL_1051) and A498 (RRID:CVCL_A498) renal cell carcinoma, NCI-H211 (ATCC, cat. CRL-5824; RRID:CVCL_1529), NCI-H196 (ATCC, cat. CRL-5823, RRID:CVCL_1509), SW 1271 (ATCC, cat. CRL-2177, RRID:CVCL_1716) and NCI-H1876 (ATCC, cat. CRL-5902, RRID:CVCL_1503) small cell lung carcinomas, MDA-MB-231 (RRID:CVCL_0062) and MDA-MB-468 (RRID:CVCL_0419)breast carcinomas (10-12). Pooled donor human umbilical vein endothelial cells (HUVEC, Lonza, cat. CC-2519) and human mesenchymal stem cells (hMSC, Lonza, cat. PT-2501) were purchased from Lonza (Walkersville, MD).
Cell Culture. All cells were maintained in an incubator at 37 degrees C and 5% CO2 with 95% humidity. The PDC lines were cultured according to standard operating procedures established by the NCI PDMR (https://pdmr.cancer.gov). Briefly all PDCs were thawed and cultured in Matrigel-coated flasks prepared with a working solution of 1X Ham's F-12 nutrient mix, without supplementation (Invitrogen, Waltham, MA, cat. 11765054), 100 U/mL penicillin-streptomycin (Invitrogen, cat. 15140122), and 2.5% Matrigel (Corning Inc., Corning, NY, cat. 354248) for the first three passages. […]
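Note: exposure lasted seven days after three days of spheroid growth.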
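Throughout, for viability, T/C: 100% = DMSO vehicle control luminescence.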

IC50 (curve of compound)	Structure (SMILES)	viability, T/C (compound 0.00316 µM)	viability, T/C (compound 0.01 µM)	viability, T/C (compound 0.0316 µM)	viability, T/C (compound 0.1 µM)	viability, T/C (compound 0.316 µM)	viability, T/C (compound 1 µM)	viability, T/C (compound 0.00949 µM)	viability, T/C (compound 0.03 µM)	viability, T/C (compound 0.0949 µM)	viability, T/C (compound 0.3 µM)	also measured
0.0019 µM and 0.000872 µM	CC(C)CC(NC(=O)C(Cc1ccccc1)NC(=O)c1cnccn1)B(O)O (stereo not drawn)	13.8% and 0.88%	1.11% and 0.16%	1.27% and 0.13%	0.62% and 0.21%	–	–	–	–	–	–	viability, T/C (compound 0.000316 µM): 103% and 98.5%; viability, T/C (compound 0.001 µM): 95.8% and 43.5%
0.00791 µM and 0.00368 µM	CC(C)CC(NC(=O)CNC(=O)c1cc(Cl)ccc1Cl)B1OC(=O)CC(CC(=O)O)(C(=O)O)O1 (stereo not drawn)	85% and 52.1%	39.5% and 23.1%	15.8% and 1.76%	2.31% and 0.36%	–	–	–	–	–	–	viability, T/C (compound 0.000316 µM): 101% and 95.7%; viability, T/C (compound 0.001 µM): 106% and 87%
> 10 µM	CC(C)c1c(-c2ccccc2)nc2c(C#N)c[nH]n2c1=O	–	–	97.4% and 97.3%	97.7% and 103%	104% and 111%	96% and 94.4%	–	–	–	–	viability, T/C (compound 3.16 µM): 98.8% and 101%; viability, T/C (compound 10 µM): 86.8% and 86.7%
7.89 µM and 7.1 µM	CC1(C)CCC(CN2CCN(c3ccc(C(=O)NS(=O)(=O)c4ccc(NCC5CCOCC5)c([N+](=O)[O-])c4)c(Oc4cnc5[nH]ccc5c4)c3)CC2)=C(c2ccc(Cl)cc2)C1	–	–	107% and 103%	111% and 102%	111% and 99%	109% and 106%	–	–	–	–	viability, T/C (compound 3.16 µM): 111% and 102%; viability, T/C (compound 10 µM): 34.5% and 27.7%
0.0265 µM and 0.00353 µM	CC1COCCN1c1cc(-c2ccnn2C)c2ccnc(-c3ccn[nH]3)c2n1 (stereo not drawn)	83.2% and 50.8%	64.8% and 42.2%	47% and 33.7%	35% and 27.4%	34.6% and 23.9%	26.3% and 21.2%	–	–	–	–	–
0.721 µM and 0.377 µM	CC1COCCN1c1cc(C2(S(C)(=N)=O)CC2)nc(-c2ccnc3[nH]ccc23)n1 (stereo not drawn)	–	–	103% and 94.9%	98.4% and 71.9%	65.3% and 47.5%	44.2% and 42.4%	–	–	–	–	viability, T/C (compound 3.16 µM): 39.6% and 31.8%; viability, T/C (compound 10 µM): 28.1% and 23.8%
> 3 µM	CCN(c1cc(-c2ccc(CN3CCOCC3)cc2)cc(C(=O)NCc2c(C)cc(C)[nH]c2=O)c1C)C1CCOCC1	–	–	–	–	–	–	98.4% and 76.7%	84.1% and 80.7%	85.5% and 79.5%	87.4% and 70.5%	viability, T/C (compound 0.949 µM): 89.7% and 63.1%; viability, T/C (compound 3 µM): 77.4% and 63.9%
0.00586 µM and 0.00195 µM	CC[C@@]1(O)C(=O)OCc2c1cc1n(c2=O)Cc2cc3c(CN(C)C)c(O)ccc3nc2-1	60.2% and 37.7%	38.6% and 29.1%	39.1% and 27.6%	27.7% and 20%	–	–	–	–	–	–	viability, T/C (compound 0.000316 µM): 95.7% and 78.2%; viability, T/C (compound 0.001 µM): 78.1% and 65.8%
< 0.000949 µM	CCc1c2c(nc3ccc(O)cc13)-c1cc3c(c(=O)n1C2)COC(=O)[C@]3(O)CC	–	–	–	–	–	–	22.8% and 18.7%	24.2% and 13%	1.74% and 0.3%	0.21% and 0.19%	viability, T/C (compound 0.000949 µM): 34.5% and 24.9%; viability, T/C (compound 0.003 µM): 27.7% and 18.2%
0.198 µM and 0.0876 µM	COc1cc(C2c3cc4c(cc3C(OC3OC5COC(C)OC5C(O)C3O)C3COC(=O)C23)OCO4)cc(OC)c1O (stereo not drawn)	–	–	–	–	–	–	94.6% and 80.4%	99.6% and 65.2%	64.6% and 46.6%	45.4% and 38.4%	viability, T/C (compound 0.949 µM): 44.4% and 41.1%; viability, T/C (compound 3 µM): 35.4% and 29.4%
0.0669 µM and 0.0223 µM	COc1cc(Nc2ncc3c(n2)-c2ccc(Cl)cc2C(c2c(F)cccc2OC)=NC3)ccc1C(=O)O	99.2% and 68.6%	73.5% and 63.5%	53.3% and 44%	49% and 36.2%	45.1% and 34.5%	48.5% and 34.6%	–	–	–	–	–
1 µM and 0.524 µM	COc1ccc([C@@H](O)c2cc(-c3ncnc4cc(N5CCOCC5)ccc34)c(F)cc2Cl)nn1	–	–	91.2% and 99.6%	89.8% and 86.9%	67.2% and 52.7%	48.6% and 41.2%	–	–	–	–	viability, T/C (compound 3.16 µM): 37.1% and 26.7%; viability, T/C (compound 10 µM): 22.2% and 14.9%
–	Cn1ncnc1C1c2n[nH]c(=O)c3cc(F)cc(c23)NC1c1ccc(F)cc1 (stereo not drawn)	105% and 70.6%	75.7% and 48.9%	64.4% and 38.5%	54.2% and 38%	–	–	–	–	–	–	viability, T/C (compound 0.000316 µM): 104% and 89.5%; viability, T/C (compound 0.001 µM): 104% and 89.1%
–	NC1CC1c1ccc(-c2cccc(O)c2)cc1 (stereo not drawn)	–	–	–	107%	–	–	–	–	–	–	IC50 (compound alone, run of 12/07/2021): > 10 µM
–	NC1CCC(NC2CC2c2ccccc2)CC1 (stereo not drawn)	–	–	–	103% [middle of 25 runs]	107% and 112%	104% [middle of 25 runs]	–	–	–	–	viability, T/C (compound 3.16 µM): 105% [middle of 25 runs]; viability, T/C (compound 10 µM): 107% [middle of 23 runs]; IC50 (compound alone, run of 11/29/2021): > 10 µM
0.395 µM and 0.204 µM	NS(=O)(=O)OCC1CC(n2ccc3c(NC4CCc5ccccc54)ncnc32)CC1O (stereo not drawn)	–	–	–	–	–	–	105% and 114%	120% and 108%	103% and 94.9%	59.1% and 27.2%	viability, T/C (compound 0.949 µM): 21.5% and 8.78%; viability, T/C (compound 3 µM): 14% and 6.66%
0.167 µM and 0.163 µM	Nc1ccccc1NC(=O)c1ccc(CNC(=O)OCc2cccnc2)cc1	–	–	–	–	–	–	110% and 105%	94.2% and 104%	64.6% and 56.3%	33.3% and 36%	viability, T/C (compound 0.949 µM): 15.7% and 17.6%; viability, T/C (compound 3 µM): 0.87% and 1.11%
< 0.000949 µM	Nc1ccn(C2OC(CO)C(O)C2(F)F)c(=O)n1 (stereo not drawn)	–	–	–	–	–	–	21.2% and 23%	23.5% and 25.3%	23.3% and 24.1%	21.9% and 23.4%	viability, T/C (compound 0.000949 µM): 24.4% and 23%; viability, T/C (compound 0.003 µM): 20.5% and 20.8%
> 1 µM and 0.87 µM	Nc1ncn(C2CC(O)C(CO)O2)c(=O)n1 (stereo not drawn)	103% and 98.2%	99.5% and 83.4%	96.5% and 72.9%	86.3% and 58.4%	73.2% and 54.2%	67.8% and 49.4%	–	–	–	–	–
–	Nc1ncn(C2CC(O)C(CO)S2)c(=O)n1 (stereo not drawn)	–	–	–	–	–	–	87.3% and 55.7%	69% and 39.4%	58% and 34.1%	44% and 27.4%	viability, T/C (compound 0.000949 µM): 108% and 85.9%; viability, T/C (compound 0.003 µM): 105% and 77%
0.158 µM and 0.066 µM	O=C(C=Cc1cccc(S(=O)(=O)Nc2ccccc2)c1)NO	–	–	–	–	–	–	97.1% and 80.1%	76.2% and 59%	51.9% and 41.6%	38.6% and 33.9%	viability, T/C (compound 0.949 µM): 28.6% and 14.6%; viability, T/C (compound 3 µM): 3.45% and 0.83%
0.0146 µM and 0.00502 µM	O=C(C=Cn1cnc(-c2cc(C(F)(F)F)cc(C(F)(F)F)c2)n1)NNc1cnccn1	87.2% and 64.4%	56.7% and 27.2%	35.6% and 23.6%	31.5% and 16.4%	28.4% and 14.6%	23.4% and 14.3%	–	–	–	–	–
4.91 µM and 0.633 µM	O=C(c1cc(Cc2n[nH]c(=O)c3ccccc23)ccc1F)N1CCN(C(=O)C2CC2)CC1	–	–	90.5% and 78.2%	99.3% and 78.3%	92.2% and 59.4%	75.5% and 42.5%	–	–	–	–	viability, T/C (compound 3.16 µM): 54.9% and 41.5%; viability, T/C (compound 10 µM): 43.3% and 30.9%
